Laboratory results published in PMC7169845, “Synthesis and Bioactivity of Phthalimide Analogs as Potential Drugs to Treat Schistosomiasis, a Neglected Disease of Poverty” (Pharmaceuticals, 2020).

How the values were obtained:
[1] = system: HepG2-A16-CD81EGFP cells; experiment: HepG2 cell cytotoxicity assay (CellTiter-Glo); type: cell-based; details: Homo sapiens, 72 h
Protocol: HepG2-A16-CD81EGFP cells (human hepatocarcinoma HepG2 cells stably transformed to express the tetraspanin CD81 receptor [51, 52]) were cultured at 37 °C in 5% CO2 in DMEM (without phenol red; Thermo Fisher Scientific, Waltham, MA, USA) supplemented with 10% FBS, 0.29 mg/mL glutamine, 100-unit penicillin and 100 μg/mL streptomycin. For cytotoxicity assays, compounds were prepared in 12-point 1:3 serial dilutions in DMSO starting at 10 mM. Then, 50 nL of compound (0.5% final DMSO concentration) were transferred with an Acoustic Transfer System (ATS) (Biosero) into white, solid bottom 1536-well assay plates (Greiner BioOne custom GNF mold; Monroe, NC, USA). Puromycin (12-point serial dilution starting at 10 μM) and 0.5% DMSO were used as positive and negative controls, respectively. After addition of compound, HepG2-A16-CD81EGFP cells in 10 µL of the above medium (5% FBS) were seeded into the assay plates at a density of 3,000 cells per well. Assay plates were incubated at 37 °C in 5% CO2for 72 h. To assess the HepG2 viability, the assay medium was removed by inverted centrifugation of the plate at 150 xg for 30 s. Then, 2 μL per well of CellTiter-Glo reagent (Promega diluted 1:2 with deionized water) was added using a MicroFlo liquid handler (BioTek). Immediately after addition of the CellTiter-Glo reagent, the luminescence was measured with an EnVision Multilabel reader (PerkinElmer). EC50 values were calculated using the normalized bioluminescence intensity and a non-linear, variable slope, four-parameter regression curve-fitting model in Prism 5 (GraphPad Software Inc., San Diego, CA, USA).

[2] = system: S. mansoni adults; experiment: Phenotypic screen of S. mansoni adult worms (severity score); type: cell-based, Schistosoma mansoni
Protocol: (§1) Functionalized Pht-based molecules were synthesized, and phenotypically screened at 10 µM as a function of time against S. Mansoni somules (up to 72 h) and adults (up to 24 h). The resulting phenotypes were classified using a previously described nomenclature that records the many non-exclusive changes (descriptors) that can occur in the parasite in response to chemical insult. Each descriptor is converted into a value from 0 (no effect) to 4 (maximal effect) to allow for comparisons of effects on the parasite between compounds [40, 41, 42, 43]. For consistency, we consider a score of 2 to be the minimum for a compound to be considered active.
(§2) Maintenance of the S. mansoni (Naval Medical Research Institute (NMRI) isolate), life cycle involved male Golden Syrian Hamsters and Biomphalaria glabrata snails (NMRI isolate), as the definitive and intermediate hosts, respectively. Use of hamsters was approved by the Institutional Animal Care and Use Committee of the University of California San Diego. The preparation of somules (post-infective larvae derived from infectious larvae called cercariae) and adult worms (≥42-days-old), and their co-incubation with test compounds using a customized Basch incubation medium were as described. Screens of two developmental stages were employed in order to identify compounds with a potential broader spectrum of efficacy than the current drug, PZQ, which is deficient in this regard. Screens with somules employed 96-well round-bottomed plates and 40–50 animals/well, whereas screens with adults employed 24-well flat-bottomed plates and approximately 5–7 males and 2–3 females/well. Screens employed a final compound concentration of 10 µM in DMSO (at 0.5% and 0.1% final concentrations for somules and adults, respectively). The complex and often dynamic phenotypic responses that the schistosome parasite is capable of were observed using an Axiovert A1 inverted microscope at the times indicated in the data table. Observations were codified using a defined nomenclature that involves simple “descriptors”, to convey changes in shape, motility and appearance compared to DMSO controls. Each descriptor was given a value of 1 and these were added up to yield a “severity score” with a maximum of 4. Evidence of degeneracy or death was awarded a value of 4 for adult parasites specifically, the inability to adhere to the bottom of the well using oral or ventral suckers was given a score of 1 and damage to the tegument (surface) was awarded a value of 4 on the understanding that such damage in vivo would compromise survival. Scores were averaged across the two experiments.

[3] = system: S. mansoni somules (schistosomula, post-infective larvae); experiment: Phenotypic screen of S. mansoni somules (severity score); type: cell-based, Schistosoma mansoni
Protocol: as §1, §2

SMILES: CCC(C)C(c1nc2ccccc2n1Cc1cn(-c2c(F)cccc2F)nn1)N1C(=O)c2ccccc2C1=O (centres unmarked) [6x, 2-(1-(1-((1-(2,6-Difluorophenyl)-1H-1,2,3-triazol-4-yl)methyl)-1H-benzo[d]imidazol-2-yl)-2-methylbutyl)isoindoline-1,3-dione]
- IC50 [1]: > 100 µM
- EC50 ([1]; counter toxicity): > 100 µM
- ADULT SEVERITY SCORES @ 10 µM, 1 h ([2]; 1 h, score 0-4): 0
- Adult Severity Score (10 µM) 1 h ([2]; 1 h, score 0 to 4): 0
- ADULT SEVERITY SCORES @ 10 µM, 5 h ([2]; 5 h, score 0-4): 0
- Adult Severity Score (10 µM) 5 h ([2]; 5 h, score 0 to 4): 0
- ADULT SEVERITY SCORES @ 10 µM, 24 h ([2]; 24 h, score 0-4): 0
- Adult Severity Score (10 µM) 24 h ([2]; 24 h, score 0 to 4): 0
- Somule Severity Score (10 µM) 24 h ([3]; 24 h, score 0 (no effect) to 4 (maximum), averaged across two experiments): 0
- SOMULE SEVERITY SCORES @ 10 µM, 24 ([3]; 24 h, score 0-4): 0
- SOMULE SEVERITY SCORES @ 10 µM, 48 ([3]; 48 h, score 0-4): 0
- Somule Severity Score (10 µM) 48 h ([3]; 48 h, score 0 to 4): 0
- SOMULE DESCRIPTORS @ 10 µM, 72 h ([3]; 72 h, phenotypic descriptors): Dark, R
- SOMULE SEVERITY SCORES @ 10 µM, 72 ([3]; 72 h, score 0-4): 2
